pIC50, pKi: −log10 of the molar value. The source made the active and inactive calls. The calls are words filed in the database; no cut-off is given here.
Key:
[1] = target: T1, Tissue alpha-L-fucosidase (Bos taurus) (UniProt Q2KIM0); experiment: Inhibition of bovine kidney alpha L-fucosidase at 1 mM
T1 sequence (whole entry): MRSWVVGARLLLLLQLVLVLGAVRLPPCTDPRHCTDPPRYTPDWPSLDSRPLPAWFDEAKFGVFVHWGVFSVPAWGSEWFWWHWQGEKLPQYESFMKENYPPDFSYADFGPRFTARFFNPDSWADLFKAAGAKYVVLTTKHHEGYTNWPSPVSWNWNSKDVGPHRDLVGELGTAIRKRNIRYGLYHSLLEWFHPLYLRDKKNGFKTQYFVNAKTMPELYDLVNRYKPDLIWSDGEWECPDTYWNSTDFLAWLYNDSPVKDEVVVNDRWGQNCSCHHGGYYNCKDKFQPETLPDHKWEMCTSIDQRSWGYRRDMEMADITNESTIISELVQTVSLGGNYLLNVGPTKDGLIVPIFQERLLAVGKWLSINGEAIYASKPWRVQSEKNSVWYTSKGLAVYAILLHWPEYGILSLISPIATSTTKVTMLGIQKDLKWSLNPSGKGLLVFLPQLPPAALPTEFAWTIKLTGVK

[2] = tested on: Prunus dulcis; experiment: Inhibition of almond beta glucosidase at 1 mM
[3] = tested on: Saccharomyces cerevisiae; experiment: Inhibition of yeast maltase at 1 mM
[4] = tested on: Aspergillus niger; experiment: Inhibition of Aspergillus niger amyloglucosidase at 1 mM
[5] = target: Beta-galactosidase (Escherichia coli K-12) (UniProt P00722); experiment: Inhibition of Escherichia coli beta galactosidase at 1 mM
[6] = target: T2, Tissue alpha-L-fucosidase (Bos taurus, UniProt Q2KIM0); experiment: Inhibition of bovine kidney alpha L-fucosidase
T2 sequence (Q2KIM0 whole entry): T1 sequence (whole entry)

[7] = tested on: Aspergillus niger; experiment: Inhibition of Aspergillus niger amyloglucosidase at 0.1 mM
[8] = target: T1, Tissue alpha-L-fucosidase (Bos taurus); experiment: Inhibition of bovine kidney alpha L-fucosidase at 0.1 mM
[9] = target: Beta-galactosidase (Escherichia coli K-12) (UniProt P00722); experiment: Inhibition of Escherichia coli beta galactosidase at 0.1 mM
[10] = tested on: Saccharomyces cerevisiae; experiment: Inhibition of yeast maltase at 0.1 mM
[11] = tested on: Prunus dulcis; experiment: Inhibition of almond beta glucosidase at 0.1 mM

Sequence of Beta-galactosidase (Escherichia coli K-12) (P00722 whole entry): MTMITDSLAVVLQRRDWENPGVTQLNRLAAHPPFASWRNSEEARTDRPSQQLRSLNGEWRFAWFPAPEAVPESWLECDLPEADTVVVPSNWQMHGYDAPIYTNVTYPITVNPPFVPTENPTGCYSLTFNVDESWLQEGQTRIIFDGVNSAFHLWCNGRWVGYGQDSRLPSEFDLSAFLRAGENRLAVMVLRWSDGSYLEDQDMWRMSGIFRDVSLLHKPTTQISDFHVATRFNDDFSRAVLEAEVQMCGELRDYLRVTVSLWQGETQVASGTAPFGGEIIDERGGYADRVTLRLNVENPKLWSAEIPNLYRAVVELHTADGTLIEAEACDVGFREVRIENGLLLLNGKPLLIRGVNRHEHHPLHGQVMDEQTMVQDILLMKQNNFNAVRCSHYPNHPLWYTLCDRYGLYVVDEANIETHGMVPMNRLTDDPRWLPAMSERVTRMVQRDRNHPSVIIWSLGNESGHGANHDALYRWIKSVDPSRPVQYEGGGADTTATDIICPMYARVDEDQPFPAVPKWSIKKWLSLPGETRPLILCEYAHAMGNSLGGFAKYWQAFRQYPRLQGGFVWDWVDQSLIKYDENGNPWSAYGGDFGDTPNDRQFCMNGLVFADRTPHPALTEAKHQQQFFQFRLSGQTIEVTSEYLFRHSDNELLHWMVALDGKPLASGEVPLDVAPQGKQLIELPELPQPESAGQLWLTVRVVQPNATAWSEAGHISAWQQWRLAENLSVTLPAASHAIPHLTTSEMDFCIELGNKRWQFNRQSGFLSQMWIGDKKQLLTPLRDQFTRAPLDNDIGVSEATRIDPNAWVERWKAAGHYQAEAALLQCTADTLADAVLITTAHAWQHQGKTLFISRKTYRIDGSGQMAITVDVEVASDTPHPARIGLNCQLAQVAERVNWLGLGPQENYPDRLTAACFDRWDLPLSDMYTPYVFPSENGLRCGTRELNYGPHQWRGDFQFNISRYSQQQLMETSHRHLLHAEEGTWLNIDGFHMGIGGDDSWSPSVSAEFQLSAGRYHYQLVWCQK

Row | inhibition [1] | inhibition [2] | inhibition [3] | inhibition [4] | inhibition [5] | pIC50 [6] | pKi [6] | inhibition [7] | inhibition [8] | inhibition [9] | inhibition [10] | inhibition [11] | SMILES
1 | 17% | 23% | inactive | inactive | inactive |  |  |  |  |  |  |  | C[C@H]1NN[C@@H](CO)[C@H](O)[C@@H]1O
2 | 82% | inactive | inactive | inactive | inactive | 3.55 |  |  |  |  |  |  | C[C@@H]1NN[C@@H](CNC(=O)[C@@H](N)Cc2ccccc2)[C@H](O)[C@@H]1O
3 | 97% | inactive | inactive | inactive | inactive | 4.52 | 5.38 |  |  |  |  |  | C[C@@H]1NN[C@@H](CO)[C@H](O)[C@@H]1O
4 | 53% | inactive | inactive | inactive | inactive |  |  |  |  |  |  |  | C[C@H]1NN[C@@H](CNC(=O)c2ccc(-c3ccccc3)cc2)[C@H](O)[C@@H]1O
5 | 77% | inactive | inactive | inactive | inactive | 3.27 |  |  |  |  |  |  | C[C@@H]1NN[C@@H](CNC(=O)[C@@H](N)CCCCN)[C@H](O)[C@@H]1O
6 | 44% | inactive | inactive | inactive | inactive |  |  |  |  |  |  |  | C[C@@H]1NN[C@@H](CN)[C@H](O)[C@@H]1O
7 | 70% | inactive | 51% | inactive | inactive |  |  |  |  |  |  |  | CCCCCCCCCCCC(=O)NC[C@@H]1NN[C@@H](C)[C@@H](O)[C@H]1O
8 | inactive | inactive | inactive | inactive | inactive |  |  |  |  |  |  |  | C[C@H]1NN[C@@H](CNC(=O)[C@@H](N)Cc2ccccc2)[C@H](O)[C@@H]1O
9 | 53% | inactive | inactive | inactive | inactive |  |  |  |  |  |  |  | C[C@H]1NN[C@@H](CN)[C@H](O)[C@@H]1O
10 | 40% | inactive | inactive | 24% | inactive |  |  |  |  |  |  |  | CCCCCCCCCCCC(=O)NC[C@@H]1NN[C@H](C)[C@@H](O)[C@H]1O

Continued, compound first:

Row | SMILES | inhibition [1] | inhibition [2] | inhibition [3] | inhibition [4] | inhibition [5] | pIC50 [6] | pKi [6] | inhibition [7] | inhibition [8] | inhibition [9] | inhibition [10] | inhibition [11]
11 | C[C@@H]1NN[C@@H](CNC(=O)c2ccc(-c3ccccc3)cc2)[C@H](O)[C@@H]1O |  |  |  |  |  | 5.07 | 6.00 | 21% | 85% | inactive | inactive | inactive
12 | C[C@H]1[C@@H](O)[C@@H](O)[C@H](CN)NN1C(=O)OCc1ccccc1 | 92% | inactive | inactive | inactive | 32% | 3.93 |  |  |  |  |  | 
13 | C[C@@H]1[C@@H](O)[C@@H](O)[C@H](CNC(=O)[C@@H](N)Cc2ccccc2)NN1C(=O)OCc1ccccc1 | 16% | inactive | inactive | inactive | inactive |  |  |  |  |  |  | 
14 | C[C@@H]1[C@@H](O)[C@@H](O)[C@H](CNC(=O)c2ccc(-c3ccccc3)cc2)NN1C(=O)OCc1ccccc1 |  |  |  |  |  |  |  | inactive | inactive | inactive | inactive | inactive
15 | C[C@@H]1[C@@H](O)[C@@H](O)[C@H](CO)NN1C(=O)OCc1ccccc1 | 27% | inactive | inactive | inactive | inactive |  |  |  |  |  |  | 
16 | C[C@@H]1[C@@H](O)[C@@H](O)[C@H](CN)NN1C(=O)OCc1ccccc1 | 54% | inactive | inactive | inactive | inactive |  |  |  |  |  |  | 
17 | C[C@H]1[C@@H](O)[C@@H](O)[C@H](CO)NN1C(=O)OCc1ccccc1 | 35% | inactive | inactive | inactive | inactive |  |  |  |  |  |  | 
18 | C[C@H]1[C@@H](O)[C@@H](O)[C@H](CNC(=O)[C@@H](N)Cc2ccccc2)NN1C(=O)OCc1ccccc1 | 65% | inactive | inactive | inactive | inactive |  |  |  |  |  |  | 
19 | C[C@H]1[C@@H](O)[C@@H](O)[C@H](CNC(=O)[C@@H](N)CCCCN)NN1C(=O)OCc1ccccc1 | 77% | inactive | inactive | inactive | inactive |  |  |  |  |  |  | 
20 | CCCCCCCCCCCC(=O)NC[C@@H]1NN(C(=O)OCc2ccccc2)[C@@H](C)[C@@H](O)[C@H]1O |  | inactive | inactive | inactive | inactive |  |  |  | 5% |  |  | 

Reference: ChEMBL document CHEMBL1177655, “Synthesis and inhibitory activities of novel C-3 substituted azafagomines: a new type of selective inhibitors of α-L-fucosidases” (Bioorg Med Chem, 2010)
